{
  "source": "patent US20060183221A1",
  "about": "“Method for neural differentiation of embryonic stem cells using protease passaging techniques” (priority 2003, published 2006)",
  "key": {"[1]": {"tested_on": "differentiating mouse ES cells (ES-J1)", "assay": "Apoptosis (TUNEL staining) in differentiating mouse ES cells incubated with ceramide analogs", "assay_type": "cell-based", "conditions": "15 hours with 75 μM S16 or S18, or 35 μM C2-ceramide", "description": "In vitro neural differentiation of mouse ES cells (ES-J1, ES-D3) followed a serum deprivation protocol as described previously (Hancock, et al., 2000, Biochem. Biophys. Res. Commun. 271: 418-421). The differentiation stages are outlined in FIG. 2. Briefly, ES cells were grown on gamma-irradiated feeder fibroblasts for four days in Knockout DMEM/15% Knockout serum replacement, supplemented with ESGRO (LIF; Chemicon; Cat No. ESG1106) at a concentration of […] medium. ES cells were then grown for another four days on gelatin-coated bacterial culture dishes without a fibroblast feeder layer, and were then grown for three days in Knockout DMEM/15% heat-inactivated ES qualified Fetal Bovine Serum, supplemented with 10^3 units LIF per ml of medium. Upon trypsinization, ES cells were transferred to bacterial culture dishes without gelatin, and embryoid body (EB) formation was induced for four days in Knockout DMEM/10% heat-inactivated ES qualified FBS without LIF (EB4 stage). On the fifth day, floating and loosely attached EBs were rinsed off and transferred to tissue culture dishes. The EBs were allowed to attach to the tissue culture dish surface by incubation for another 24 hours in Knockout DMEM with 10% heat-inactivated ES qualified fetal bovine serum. Neural differentiation due to serum deprivation was induced by cultivation of the EBs for three days in DMEM/F12 (50/50), supplemented with 1×N2 (Invitrogen/Life Technologies; Cat No. 17502, dilution of 1: 100) but without serum (EB8 stage). Serum-deprived EBs were then trypsinized, plated on poly-L-ornithine/laminin-coated tissue culture dishes and grown for four days in DMEM/F12 (50/50), supplemented with N2 and 10 ng/ml FGF-2, but without serum. his incubation period is referred to as neuroprogenitor (NP) stage due to commitment of neuroepithelial precursor cells to neuroprogenitor cells. These cells have committed during the EB stages and were expanded during the NP stage. NPs grown for 48 hours upon replating of trypsinized EBs were referred to as the NP2 stage. On the fifth day of NP formation, the medium was changed to Neurobasal (Invitrogen/Life Technologies; Cat No. 21103-049), with 5% heat-inactivated FBS, and the cells were incubated for another seven days. During this time, NPs fully differentiate to glial cells and neurons. Cells cultured for 24 hours or 96 hours upon changing the medium were referred to as the D1 or D4 stage, respectively.\nES cells were cultured and differentiated to the EB4, EB8, NP2, or D4 stage following the protocol as described above. The ceramide analog S18 was dissolved in ethanol at a concentration of 100 mM and then added to the cells at a final concentration of 75 μM in medium. The cells at the EB8 stage were incubated for 48 hours in the presence of the ceramide analog and were then transplanted into mouse brains.\nDifferentiating ES cells were grown on cover slips and fixed with 4% paraformaldehyde in phosphate-buffered saline (PBS). Fixed cells were permeabilized with 0.5% Triton X-100 in PBS for 5 minutes at room temperature and unspecific binding sites were saturated by incubation with 3% ovalbumin in PBS for 1 hour at 37° C. The cover slips were then incubated with 5 μg/ml primary antibody (anti-ceramide clone 15B4 mouse IgM, Alexis; anti-PAR-4 rabbit IgG, Santa Cruz; anti-PCNA rabbit IgG, Santa Cruz; anti-nestin clone 401 rat IgG, BD Pharmingen) in 0.1% ovalbumin/PBS, followed by incubation with the appropriate fluorescence-labeled secondary antibody (5 μg/ml Alexa 546 conjugated anti-mouse IgG, Molecular Probes; Alexa 488 conjugated anti-rabbit IgG, Molecular Probes, Cy3 conjugated anti-mouse IgM, Jackson) for 2 hours at 37° C. The nuclei were stained by treatment with 2 μg/ml Hoechst 33258 in PBS for 30 minutes at room temperature. Apoptotic nuclei were stained using the fluorescein FragEL TUNEL assay (Oncogene) according to the manufacturer's instructions. […]"}, "[2]": {"tested_on": "Mouse neuroblastoma (F-11) cells", "assay": "Induction of apoptosis in mouse neuroblastoma cells (Hoechst 33258 staining of condensed nuclei)", "assay_type": "cell-based", "conditions": "24 hours", "description": "Mouse neuroblastoma (F-11) cells were incubated for 24 hours in 0.1, 0.2, 0.5, or 1.0 μM of laurylgallate (Aldrich). Apoptosis was determined by punctate staining of condensed nuclei with Hoechst 33258 (Sigma, […] medium for 30 minutes at room temperature)."}, "SSEA4 selected HESCs [3]": {"tested_on": "SSEA4 selected HESCs", "assay": "Differentiation of SSEA4 selected HESCs as serum free embryoid bodies in differing media formulations (cytospin counts, immunostaining)", "assay_type": "cell-based, human", "conditions": "L-proline conditions", "description": "Serum free embryoid bodies were cultured in suspension for 3 weeks. Morphological differences were apparent between the cultures. […] Serum free embryoid bodies were cultured in suspension, and were cut into pieces, seeded onto polyornithine/laminin coated slides at day 21 and fixed at day 25. […] This was indicative that this differentiation protocol utilizes an intrinsic neural differentiation capacity of HESC, rather than exogenous neural inducing factors.\nCytospins of disaggregated serum free embryoid bodies were performed at day 21 to enable the counting of the proportion of βIII-Tubulin or TH positive cells generated in the different media formulations. […]\nTo count proportions of neurons in serum free embryoid bodies, cytospins were immunostained with anti-βIII-Tubulin (Sigma, #T8660) or mouse anti-TH monoclonal antibodies (PeIFreez Biologicals, #P80101-0), detected with alexa-488 conjugated anti-mouse secondary antibody and nuclei were stained with DAPI. Two color fluorescent images were taken under 10× magnification and merged, and double positive signals were scored as neuronal cell bodies, or TH+ neuronal cell bodies against the total nuclei count. A minimum of three randomly sampled fields and 250 or 100 nuclei for βIII-Tubulin or TH, respectively, were counted for each condition. […]"}, "SSEA4 selected HESCs [4]": {"tested_on": "SSEA4 selected HESCs", "excerpt": "Essentially serum free embryoid bodies were generated from bulk passaged monolayer HESC colonies as described in Example 6, in the presence of the media set out below."}, "SSEA4 selected HESCs [5]": {"tested_on": "SSEA4 selected HESCs", "conditions": "4 ng/ml FGF2 and 100 μM proline", "description": "Essentially serum free embryoid bodies were generated from bulk passaged monolayer HESC colonies as described in Example 6, in the presence of 4 ng/ml FGF2 and 100 μM Proline, or in 4 ng/ml FGF2 with MEDII conditioned medium as a positive control.\nSerum free embryoid bodies were cultured in suspension for 17 days, and were cut into pieces and seeded onto polyornithine/laminin coated slides at day 10 or 17. The explants were cultured on slides for 5 days prior to fixation at day 15 or 22, for immunostaining with anti-βIII-Tubulin and anti-Tyrosine Hydroxylase antibodies."}, "SSEA4 selected HESCs [6]": {"tested_on": "SSEA4 selected HESCs", "assay": "Neural differentiation of SSEA4 selected bulk passaged HESCs as serum free embryoid bodies with or without MEDII and S18, seeded and immunostained", "assay_type": "cell-based, human", "description": "Cultures were treated with or without 10 μM S18 from day 13 to day 17. After S18 treatment, serum free embryoid bodies were washed several times and cultured further until day 18. Serum free embryoid bodies were cut into pieces to seed down to polyornithine/laminin coated slides.\nIn the presence of MEDII, a consistently high proportion of the culture contained TH+ neurons, with the background of non-neural regions that was negative for the neuronal marker βIII-Tubulin typically lower than 10%. It was not determined whether the effect of MEDII induced more efficient neuralization or inhibited the generation of non-neural cell types. […] This proportion was determined by analysis of double staining of neural extensions for βIII-Tubulin and TH (FIG. 18), and overlaying Hoffman images with TH immunofluorescence (FIG. 19). The increase in the proportion of TH+ neurons in MEDII treated differentiations appeared to be due to the overall increase in neuronal differentiation, rather than an effect on the proportion of neurons that were dopaminergic, because the proportions of neurons that were TH+ in differentiations not exposed to MEDII was equally high. Another marker of DA cells, VMAT, was expressed in similarly high proportions of cells within the sfEBM cultures. TH+/VMAT−, TH−/VMAT+ and TH+/VMAT+ cells were observed (FIG. 20), possibly indicating temporal variability in the induction of expression of these markers prior to being co-expressed."}},
  "data": [
    {"molecule": "CCCCCCCCCCCCC/C=C/[C@@H](O)[C@H](CO)NC(C)=O", "note": "[C2-ceramide, N-acetyl sphingosine, reference compound]", "values": [
      {"measurement": "TUNEL stained cells", "setting": "[1]; EB8 stage", "value": "45±10", "unit": "%"},
      {"measurement": "TUNEL stained cells", "setting": "[1]; NP2 stage", "value": "70±10", "unit": "%"}
    ]},
    {"molecule": "CCCCCCCCCCCCCCCC(=O)NC(CO)CO", "note": "[S16, N-(2-hydroxy-1-(hydroxymethyl)ethyl)-palmitoylamide]", "values": [
      {"measurement": "TUNEL stained cells", "setting": "[1]; EB8 stage", "value": "45±10", "unit": "%"},
      {"measurement": "TUNEL stained cells", "setting": "[1]; NP2 stage", "value": "70±10", "unit": "%"}
    ]},
    {"molecule": "CCCCCCCCCCCCOC(=O)c1cc(O)c(O)c(O)c1", "note": "[laurylgallate, n-dodecyl ester of 3,4,5-trihydroxybenzoic acid]", "values": [
      {"measurement": "cells undergoing apoptosis", "setting": "[2]; 0.5 μM", "value": 50, "unit": "%"},
      {"measurement": "cells undergoing apoptosis", "setting": "[2]; 1.0 μM", "value": 100, "unit": "%"}
    ]},
    {"molecule": "O=C(O)[C@@H]1CCCN1", "note": "[proline, L-proline]", "values": [
      {"measurement": "TH+ neurons, of the cells in an embryoid body in suspension", "setting": "SSEA4 selected HESCs [3]", "value": "greater than 50%"},
      {"measurement": "maintained in a proliferative state after proliferation of neural rosette structures", "setting": "SSEA4 selected HESCs [4]; 50 μM L-proline", "value": 34, "unit": "weeks"},
      {"measurement": "maintained in a proliferative state in suspension culture after initial derivation", "setting": "SSEA4 selected HESCs [4]; 50 μM L-proline", "value": "more than 7 weeks"},
      {"measurement": "appearance of sfEBPs with low cell death and distinct neural rosette structures/folds", "setting": "SSEA4 selected HESCs [4]; 50 μM Proline condition, around 3 weeks", "value": "noticeably enhanced"},
      {"measurement": "seeded EB pieces that did not exhibit large networks of βIII-Tubulin+ cells", "setting": "SSEA4 selected HESCs [5]", "value": "less than 30%"},
      {"measurement": "neurons generated that were dopaminergic (co-expressing βIII-Tubulin and TH)", "setting": "SSEA4 selected HESCs [5]; day 22", "value": "greater than 90%"}
    ]},
    {"molecule": "FGF2: fibroblast growth factor 2", "values": [
      {"measurement": "area of seeded serum free embryoid body containing TH+ neurons", "setting": "SSEA4 selected HESCs [6]; 10 μM S18 day 13 to 17, seeded day 18, fixed day 23", "value": "30-70%"},
      {"measurement": "proportion of neurons expressing TH", "setting": "SSEA4 selected HESCs [6]; βIII-Tubulin/TH double staining, seeded day 18, fixed day 23", "value": "very high proportion"}
    ]}
  ]
}
